Legend:
[1] = tested on: Human skeletal muscle cells (SMCs); experiment: Glucose uptake assay in human skeletal muscle cells ([3H]2-deoxyglucose); assay type: cell-based
Protocol: Human skeletal muscle cells (SMCs) were obtained from TCS 2000 Ltd. Cells were seeded into 12-well plates at a density of 3×10^4 cells/well and then grown and differentiated as instructed by TCS. Differentiated human SMCs were incubated, for 32 hours at 37° C./5% CO2, in differentiation media (supplied by TCS) supplemented with an appropriate amount of agent or vehicle. Media was then changed to serum free media (MEM-alpha media, 2 mM glutamine, 100 iu/ml penicillin and 100 μg/ml streptomycin), supplemented as before, and the cells incubated for a further 16 hours.
Cells were then washed 3×with Krebs Ringer Phosphate (KRP) buffer [136 mM NaCl, 4.7 mM KCl, 1.25 mM CaCl2, 1.25 mM MgSO4, 10 mM sodium phosphate buffer, pH 7.4] and incubated in KRP (0.5 ml/well) for 30 minutes at 37° C./5% CO2. After 30 minutes incubation the glucose uptake assay was initiated by addition of 25 μl KRP containing 5 μCi [^3H]2-deoxyglucose and 1 mM deoxyglucose. After 10 minutes the reaction was terminated by washing the cells 3×with ice-cold PBS. Cells were then solublised with 125 μl/well of 1% Triton X-100 for 20 minutes at 37° C. Radioactive incorporation was measured by scintillation counting. 100 μl of each sample was analysed.

human PPARγ1 = target: T1, human PPARγ1 (Homo sapiens, UniProt P37231); experiment: PPARgamma reporter gene assay (luciferase) in transfected cos-7 cells; assay type: cell-based
T1 construct: expressed in transfected cells; host or cells: cos-7 cells (ECACC No. 87021302)
T1 sequence (P37231 1-477 isoform P37231-2): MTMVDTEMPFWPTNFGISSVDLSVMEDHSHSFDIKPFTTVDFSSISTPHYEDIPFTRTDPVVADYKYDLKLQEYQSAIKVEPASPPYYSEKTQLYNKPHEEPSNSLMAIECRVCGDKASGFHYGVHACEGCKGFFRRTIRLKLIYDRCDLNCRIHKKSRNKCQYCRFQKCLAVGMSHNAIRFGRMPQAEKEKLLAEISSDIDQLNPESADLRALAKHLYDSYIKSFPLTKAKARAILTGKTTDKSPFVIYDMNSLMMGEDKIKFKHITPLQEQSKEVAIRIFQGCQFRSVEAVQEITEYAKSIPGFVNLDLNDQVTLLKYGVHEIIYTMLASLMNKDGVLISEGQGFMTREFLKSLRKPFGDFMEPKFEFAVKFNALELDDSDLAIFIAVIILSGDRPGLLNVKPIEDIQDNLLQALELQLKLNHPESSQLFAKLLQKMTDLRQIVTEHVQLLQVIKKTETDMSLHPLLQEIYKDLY
T1 sequence (P19793 1-462 partner): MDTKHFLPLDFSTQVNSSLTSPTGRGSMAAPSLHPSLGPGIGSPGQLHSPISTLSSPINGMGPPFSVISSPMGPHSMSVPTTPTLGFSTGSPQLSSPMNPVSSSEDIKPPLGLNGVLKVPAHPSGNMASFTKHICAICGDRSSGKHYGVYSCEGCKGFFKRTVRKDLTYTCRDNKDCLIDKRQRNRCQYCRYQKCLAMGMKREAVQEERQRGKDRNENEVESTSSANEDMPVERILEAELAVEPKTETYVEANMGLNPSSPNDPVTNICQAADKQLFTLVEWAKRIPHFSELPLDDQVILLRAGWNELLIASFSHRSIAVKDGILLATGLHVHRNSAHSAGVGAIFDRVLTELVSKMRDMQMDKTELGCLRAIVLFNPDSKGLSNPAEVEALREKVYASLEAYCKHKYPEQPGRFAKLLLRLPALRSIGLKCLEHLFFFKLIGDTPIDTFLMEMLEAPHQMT
Protocol: PPARgamma receptor activity is determined by a suitable reporter gene assay. Preferably the reporter gene assay used comprises the transcription induction of a luciferase gene. Levels of firefly luciferase (normalised against the renilla luciferase control) provide a measure of reporter gene activity which in turn reflects the level of activation.
This assay is based on that described by Kliewer et al (Nature 358 771-774 1992). In brief, cos-7 cells (ECACC No. 87021302) were seeded in 24-well plates at a density of 0.325×10^5 cells/well. Cells were grown overnight at 37° C./5% CO2 in DMEM containing 10% FCS, 2 mM L-glutamine, 100 iu/ml penicillin and 100 µg/ml streptomycin. Cells were washed with transfection media (DMEM containing 2 mM L-glutamine) then transiently transfected with 4 plasmids: a PPAR-responsive firefly luciferase reporter gene (pPPRE3TK-luc); mammalian expression plasmids (pcDNA3/hPPARγ1 and pRSV/hRXRα) containing human PPARγ1 and RXRα cDNAs respectively and a control plasmid (PRLTK, Promega) which constitutatively expresses the renilla luciferase gene. Transfection was performed using Lipofectamine (Gibco Brl) as directed by the manufacturers. Transfected cells were incubated for 6 h at 37° C./5% CO2 and then for a further 46 hours in the presence or absence of ligand. After 46 hours cell lysates were prepared and the level of firefly and renilla luciferase determined using the Dual luciferase assay system (Promega) and a MLX microtitre plate luminometer (Dynex). The level of firefly luciferase (normalised against the renilla luciferase control) provides a measure of reporter gene activity. This in turn reflect the level of PPARγ activation.
A double-stranded PPAR-binding site was prepared using the ‘Klenow fill-in’ technique. A 113 bp oligonucleotide (PPRE1/3) containing a triplet of PPREs and appropriate restriction endonuclease sites was designed. PPRE1/3 and a 20 bp oligonucleotide (PPRE1/3R) complementary to the 3′ region of PPRE1/3 were synthesised.
In a final volume of 20 μl 2 μg of PPRE1/3R was annealed to 2 μg of PPRE1/3 by boiling for 5 minutes and then cooling slowly to room temperature. Annealed PPRE1/3R was used to prime second-strand DNA synthesis. A 30 μl reaction mix containing 20 μl annealed DNA, 1.5 μl 2 mM dNTPs, 1×Klenow Buffer and 5 units DNA Polymerase I (Klenow fragment) was incubated for 1 hour at 37° C. and then 10 minutes at 75° C. A 5 μl sample of the synthesised product was analysed on a 3% agarose gel. The remaining product was purified by ethanol precipitation and resuspended in sterile water. The double-stranded PPAR-binding site (insert) was digested with MluI and BgllI for 1 hour at 37° C. and then purified by ethanol precipitation. 1 μg of the vector pNF-κB-luc (Clontech) was digested with MluI and BgllI for 1 hour at 37° C. and then analysed on a 1% agarose gel Digested DNA was purified from the gel using a Qiaquick Gel Extraction Kit (Qiagen). Digested vector and insert DNA were incubated for 4 hours at room temperature in a volume of 15 μl containing 1×ligase buffer and 5 units T4 DNA ligase. The full ligation reaction was used to transform competant E.coli JM109 cells (Promega).

[2] = 1.25 μg/ml, purified components, Table 8
[3] = 2.5 μg/ml, purified components, Table 8
[4] = 5 μg/ml, purified components, Table 8

Row | SMILES | [3H] 2-deoxyglucose uptake (Fold-induction relative to vehicle) Mean ([1]; 2.5 uM) [Fold-induction] | [3H] 2-deoxyglucose uptake (Fold-induction relative to vehicle) Mean ([1]; 5 uM) [Fold-induction] | Activation of PPARgamma in the reporter gene assay (in words) (human PPARγ1) | Reporter gene activity (Fold-induction relative to the vehicle) Mean (human PPARγ1; [2]) [Fold-induction] | Reporter gene activity (Fold-induction relative to the vehicle) Mean (human PPARγ1; [3]) [Fold-induction] | Reporter gene activity (Fold-induction relative to the vehicle) Mean (human PPARγ1; [4]) [Fold-induction] | Reporter gene activity (Fold-induction relative to the vehicle) Mean (human PPARγ1; 5 μg/ml, Table 9) [Fold-induction]
1 | CC1(COc2ccc(CC3SC(=O)NC3=O)cc2)CCCCC1 (centres unmarked) [Ciglitizone] | 1.3 | 3.3 | – | – | – | – | –
2 | C/C(=C\CC/C(C)=C/CCC1[C@](C)(O)CC[C@H]2C(C)(C)C(=O)CC[C@]12C)CC/C=C(\C)C(=O)O (stereo partly drawn) [Commipheric acid, 13-(decahydro-2-hydroxy-2,5,5,8a-tetramethyl-6-oxo-1-naphthalenyl)-2,6,10-trimethyl-, [1R-[1α(2E,6E,10E),2β,4aβ,8aα]]-2,6,10-tridecatrienoic acid] | – | – | able to activate PPARgamma | 2.56 | 3.40 | 8.01 | –
3 | C/C(=C\CC/C(C)=C/CC/C(C)=C/CC[C@@H]1[C@@]2(C)CCC(=O)C(C)(C)[C@@H]2CC[C@@]1(C)O)CO [Commipherol, Octahydro-6-hydroxy-5-(13-hydroxy-4,8,12-trimethyl-3,7,11-tridecatrienyl)-1,1,4a,6-tetramethyl-, [4aS-[4aα,5α(3E,7E,11E),6β,8aβ]]-2(1H)-naphthalenone] | – | – | activate PPARgamma to a lesser degree | 3.41 | 4.97 | – | –
4 | C/C=C1/C(=O)C[C@H]2[C@@H]3CCC4=CC(=O)CC[C@]4(C)[C@H]3CC[C@]12C [E-guggulsterone, reference compound] | – | – | neither the E-nor the Z-form of guggulsterone can activate PPARgamma | – | – | – | 0.4
5 | C/C(=C\CC/C(C)=C/CC/C(C)=C/CCC1C(C)(O)CCC2C(C)(C)C(O)CCC12C)CO [Myrrhanol A, Decahydro-5-[(3E,7E,11E)-13-hydroxy-4,8,12-trimethyl-3,7,11-tridecatrienyl]-1,1,4a,6-tetramethyl-, (2S,4aS,5R,6R,8aS)-2,6-naphthalenediol] | – | – | activate PPARgamma to a lesser degree | 1.14 | 1.74 | 3.87 | –
6 | C/C=C1\C(=O)C[C@H]2[C@@H]3CCC4=CC(=O)CC[C@]4(C)[C@H]3CC[C@]12C [Z-guggulsterone, reference compound] | – | – | neither the E-nor the Z-form of guggulsterone can activate PPARgamma | – | – | – | 0.5

— US20030171398A1, “Food compositions for reducing insulin resistance” (Unilever Patent Holdings BV, priority 2001, published 2003)
